Measurements: US4642314A, “Antiulcer compounds” (Nisshin Flour Milling Co., Ltd., priority 1984, dated 1987)

Columns and labels:
mice = assay: acute toxicity (LD50), intraperitoneal route in mice; format: in vivo
[1] = as above; format: in vivo; details: mouse, in vivo, ip
[2] = tested on: acetic acid-induced ulcer; assay: Acetic acid-induced ulcer (Curative test); format: in vivo, rat (male SD rats); details: Table 2; rat, 0.05 ml of 15% acetic acid underneath the serosa; lesion area on 14th day
Protocol: (§1) In the case of reserpine-induced ulcer, the assay was performed according to the description in "Arch. Int. Pharmacodym. Ther. 147,113 (1964)", and in the case of acetic acid-induced ulcer, the assay was performed according to the method described in "Jap. J. Pharmac. 19,418 (1969)", by inducing experimental ulcer in rat and evaluating the effect thereon of the compounds tested.
Groups of rats, each consisting of 6 male SD rats weighing 150-200 g were used. The stomach of ether-anesthesized rat was exposed and while taking acre not to injure blood vessels, 0.05 ml of 15% aqueous acetic acid solution was injected underneath the serosa. On the 14th day, the rats were killed with chloroform, the stomach taken out and the area of the infected lesion measured.
The curative ratio was calculated using the above equation: [formula]

reserpine-induced ulcer = assay: Reserpine-induced ulcer (Preventive test); format: in vivo, rat (male SD rats); details: Table 1; rat, 100 mg/kg oral, 30 min before reserpine 15 mg/kg i.p.; evaluated at 18 h; read-out: Preventive effect (preventive ratio)
Protocol: as §1
Groups of rats, each consisting of 6 male SD rats weighing 150-200 g were used. After 24 hours' fasting, a sample compound was orally administered to the rat at the dose of 100 mg/kg body weight, and 30 minutes after the administration, reserpine was intraperitoneally injected at the dose of 15 mg/kg body weight. Eighteen hours after the administration, the rats were killed with chloroform. The stomach was taken out, and severity of the hemorrhaging lesion was evaluated according to the method as above ("Arch. Int. Pharmacodym. Ther. 147,113 (1964)).
The preventive ratio was calculated using the following equation, [formula] wherein the control animals were intraperitoneally given reserpine only, at the dose of 15 mg/kg body weight.

SMILES	LD50 (mice; Table 1)	LD50 ([1]; Table 2)	Curative effect (curative ratio) [2]	inhibition in vivo at 100 mg/kg (reserpine-induced ulcer)	LD50 (mice; Table 2)	LD50 ([1]; Table 1)
CC(=O)OCC=C(C)CCC=C(C)CCC=C(C)CCC=C(C)CCC=C(C)CCC=C(C)CCC=C(C)CCC=C(C)CCC=C(C)CCC=C(C)C [Decaprenyl acetate]	> 5000 mg/kg	> 5000 mg/kg	+ (10%-25%)	40 to 60%	–	–
CC(C)=CCCC(C)=CCCC(C)=CCCC(C)=CCCC(C)=CCCC(C)=CCCC(C)=CCCC(C)=CCCC(C)=CCCC(C)=CCCC(=O)OCC=C(C)CCC=C(C)CCC=C(C)CCC=C(C)CCC=C(C)CCC=C(C)CCC=C(C)CCC=C(C)CCC=C(C)CCC=C(C)C [Decaprenyl decaprenylacetate]	–	–	+ (10%-25%)	–	> 5000 mg/kg	–
CCCCCCCC/C=C\CCCCCCCC(=O)OCC=C(C)CCC=C(C)CCC=C(C)CCC=C(C)CCC=C(C)CCC=C(C)CCC=C(C)CCC=C(C)CCC=C(C)CCC=C(C)C [Decaprenyl oleate]	> 5000 mg/kg	> 5000 mg/kg	++ (25%-40%)	40 to 60%	–	–
CC(C)=CCCC(C)=CCCC(C)=CCCC(C)=CCCC(C)=CCCC(C)=CCCC(C)=CCCC(C)=CCCC(C)=CCCC(C)=CCOC(=O)CCC=C(C)CCCC(C)CCCC(C)CCCC(C)C (stereo not shown) [Decaprenyl phytylacetate]	> 5000 mg/kg	> 5000 mg/kg	++ (25%-40%)	40 to 60%	–	–
CC(C)=CCCC(C)=CCCC(C)=CCCC(C)=CCCC(C)=CCCC(C)=CCCC(C)=CCCC(C)=CCCC(C)=CCCC(C)=CCCC(=O)O [Decaprenylacetic acid]	> 4000 mg/kg	> 4000 mg/kg	+++ (40%-)	40 to 60%	–	–
CC(C)=CCCC(C)=CCCC(C)=CCCC(=O)OCC=C(C)CCC=C(C)C [Gefarnate, 3,7-dimethyl-2,6-octadienyl-5,9,13-trimethyl-4,8,12-tetradecatrienoate, reference compound]	–	–	± (-10%)	10 to 40%	–	–
C=CC(C)(O)CCC=C(C)CCC=C(C)CCC=C(C)CCC=C(C)CCC=C(C)CCC=C(C)CCC=C(C)CCC=C(C)CCC=C(C)C (stereo not shown) [Isodecaprenol]	–	–	++ (25%-40%)	10 to 40%	> 4000 mg/kg	> 4000 mg/kg
C=CC(C)(CCCC(C)CCCC(C)CCCC(C)C)OC(=O)CCCCCCC/C=C\CCCCCCCC (stereo not shown) [Isophytyl oleate]	> 4000 mg/kg	> 4000 mg/kg	+++ (40%-)	> 60%	–	–
CC(=O)OC/C=C(\C)CCC[C@H](C)CCC[C@H](C)CCCC(C)C [Phytyl acetate]	> 5000 mg/kg	> 5000 mg/kg	+ (10%-25%)	40 to 60%	–	–
CCCCCCCC/C=C/CCCCCCCCCCCC(=O)OC/C=C(\C)CCC[C@H](C)CCC[C@H](C)CCCC(C)C [Phytyl brassidate]	> 4000 mg/kg	> 4000 mg/kg	++ (25%-40%)	10 to 40%	–	–
CC(C)=CCCC(C)=CCCC(C)=CCCC(C)=CCCC(C)=CCCC(C)=CCCC(C)=CCCC(C)=CCCC(C)=CCCC(C)=CCCC(=O)OCC=C(C)CCCC(C)CCCC(C)CCCC(C)C (stereo not shown) [Phytyl decaprenylacetate]	> 4000 mg/kg	> 4000 mg/kg	+ (10%-25%)	10 to 40%	–	–
CCCCCCCC/C=C\CCCCCCCC(=O)OC/C=C(\C)CCC[C@H](C)CCC[C@H](C)CCCC(C)C [Phytyl oleate]	> 4000 mg/kg	> 4000 mg/kg	+++ (40%-)	> 60%	–	–
C/C(=C\CCC(=O)O)CCC[C@H](C)CCC[C@H](C)CCCC(C)C [Phytylacetic acid]	> 5000 mg/kg	> 5000 mg/kg	+ (10%-25%)	10 to 40%	–	–
CC(C)CCCC(C)CCCC(C)CCCC(C)CCCC(C)CCCC(C)CCCC(C)CCCC(C)CCCC(C)CCCC(C)CCO (stereo not shown) [Saturated decaprenol]	–	–	++ (25%-40%)	10 to 40%	> 5000 mg/kg	> 5000 mg/kg
CC(C)=CCC/C(C)=C/CC/C(C)=C/CC/C(C)=C/CC/C(C)=C/CC/C(C)=C/CC/C(C)=C/CC/C(C)=C/CC/C(C)=C/CO [Solanesol]	–	–	++ (25%-40%)	10 to 40%	> 4000 mg/kg	> 4000 mg/kg
CCCCCCCC/C=C\CCCCCCCC(=O)OCC=C(C)CCC=C(C)CCC=C(C)CCC=C(C)CCC=C(C)CCC=C(C)CCC=C(C)CCC=C(C)CCC=C(C)C [Solanesyl oleate]	> 4000 mg/kg	> 4000 mg/kg	++ (25%-40%)	10 to 40%	–	–
CC(C)=CCCC(C)=CCCC(C)=CCCC(C)=CCCC(C)=CCCC(C)=CCCC(C)=CCCC(C)=CCCC(C)=CCCC(C)=CCCC(=O)Oc1c(C)c(C)c2c(c1C)CCC(C)(CCCC(C)CCCC(C)CCCC(C)C)O2 (stereo not drawn) [α-Tocopheryl decaprenylacetate]	–	–	–	10 to 40%	–	> 4000 mg/kg
CC(C)=CCCC(C)=CCCC(C)=CCCC(=O)Oc1c(C)c(C)c2c(c1C)CCC(C)(CCCC(C)CCCC(C)CCCC(C)C)O2 (stereo not drawn) [α-Tocopheryl farnesylacetate]	> 4000 mg/kg	> 4000 mg/kg	++ (25%-40%)	40 to 60%	–	–
CC(C)=CCCC(C)=CCCC(=O)Oc1c(C)c(C)c2c(c1C)CCC(C)(CCCC(C)CCCC(C)CCCC(C)C)O2 (stereo not drawn) [α-Tocopheryl geranylacetate]	> 4000 mg/kg	> 4000 mg/kg	+ (10%-25%)	40 to 60%	–	–
CC(=CCCC(=O)Oc1c(C)c(C)c2c(c1C)CCC(C)(CCCC(C)CCCC(C)CCCC(C)C)O2)CCCC(C)CCCC(C)CCCC(C)C (stereo not drawn) [α-Tocopheryl phytylacetate]	> 4000 mg/kg	> 4000 mg/kg	+++ (40%-)	10 to 40%	–	–
CC(C)=CCCC(C)=CCCC(C)=CCCC(C)=CCCC(C)=CCCC(C)=CCCC(C)=CCCC(C)=CCCC(C)=CCCC(=O)Oc1c(C)c(C)c2c(c1C)CCC(C)(CCCC(C)CCCC(C)CCCC(C)C)O2 (stereo not drawn) [α-Tocopheryl solanesylacetate]	–	–	–	40 to 60%	–	> 4000 mg/kg
